Test results taken from ChEMBL document CHEMBL3785087, “Synthesis and biological activities of indolizine derivatives as alpha-7 nAChR agonists” (Eur J Med Chem, 2016).

Assays:
Format in all cases: cell-based
[1] = target: T1, Neuronal acetylcholine receptor subunit alpha-7 (Homo sapiens, UniProt P36544); assay: Agonist activity at human alpha7 nAChR expressed in xenopus oocytes preincubated for 10 mins followed by acetylcholine addition by patch clamp electrophysiological assay
[2] = target: T1, Neuronal acetylcholine receptor subunit alpha-7; assay: […] to human alpha7 nAChR expressed in xenopus oocytes preincubated for 10 mins followed by acetylcholine addition by patch clamp electrophysiological assay relative to acetylcholine; set-up: concentration or dose not given beside the values
[3] = target: T1, Neuronal acetylcholine receptor subunit alpha-7; assay: Displacement of [3H]-MLA from human alpha7 nAChR expressed in xenopus oocytes
[4] = target: T1, Neuronal acetylcholine receptor subunit alpha-7; assay: Displacement of [3H]-MLA from human alpha7 nAChR expressed in xenopus oocytes in presence of alpha7 nAChR positive allosteric modulator PNU-120596

T1 sequence (P36544 whole entry): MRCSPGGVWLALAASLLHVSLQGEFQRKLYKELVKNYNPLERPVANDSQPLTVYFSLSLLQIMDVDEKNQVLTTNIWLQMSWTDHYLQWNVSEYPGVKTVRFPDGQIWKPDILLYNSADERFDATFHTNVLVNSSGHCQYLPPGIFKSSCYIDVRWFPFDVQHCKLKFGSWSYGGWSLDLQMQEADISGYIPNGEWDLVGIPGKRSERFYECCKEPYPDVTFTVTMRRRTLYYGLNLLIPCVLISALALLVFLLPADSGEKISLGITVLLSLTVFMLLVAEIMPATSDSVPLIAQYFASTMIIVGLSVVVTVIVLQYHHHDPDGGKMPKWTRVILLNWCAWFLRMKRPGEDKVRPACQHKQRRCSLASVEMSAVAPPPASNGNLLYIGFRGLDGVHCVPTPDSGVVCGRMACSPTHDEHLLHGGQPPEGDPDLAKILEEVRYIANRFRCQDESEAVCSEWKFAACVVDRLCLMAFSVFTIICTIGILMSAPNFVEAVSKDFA

Structure (SMILES): CCOC(=O)c1cc(C(=O)c2cccc(Cl)c2)n2ccc(C(=O)N[C@H]3CN4CCC3CC4)cc12
- EC50 [1]: > 20 µM
- Activity [2]: < 1%

Structure (SMILES): CCOC(=O)c1cc(C(=O)c2ccccc2)n2cc(C(=O)N[C@H]3CN4CCC3CC4)ccc12
- EC50 [1]: > 20 µM
- Activity [2]: < 1%

Structure (SMILES): O=C(N[C@H]1CN2CCC1CC2)c1cc2cccc(Cl)n2c1
- EC50 [1]: 2.49 µM
- Activity [2]: 63.2%

Structure (SMILES): O=C(N[C@H]1CN2CCC1CC2)c1cc(C(=O)c2ccccc2F)n2ccccc12
- EC50 [1]: > 20 µM
- Activity [2]: < 1%

Structure (SMILES): Cc1nc2c(Br)cccn2c1C(=O)N[C@H]1CN2CCC1CC2
- EC50 [1]: > 20 µM
- Activity [2]: < 1%

Structure (SMILES): O=C(N[C@H]1CN2CCC1CC2)c1cnc2ccccn12
- EC50 [1]: > 20 µM
- Activity [2]: < 1%

Structure (SMILES): O=C(N[C@H]1CN2CCC1CC2)c1cc(C(=O)c2ccccc2Br)n2ccccc12
- EC50 [1]: > 20 µM
- Activity [2]: < 1%

Structure (SMILES): O=C(N[C@H]1CN2CCC1CC2)c1cc(C(=O)c2ccc3ccccc3c2)n2ccccc12
- EC50 [1]: > 20 µM
- Activity [2]: < 1%

Structure (SMILES): Cc1ccccc1-c1ccc2cc(C(=O)N[C@H]3CN4CCC3CC4)cn2c1
- EC50 [1]: > 20 µM
- Activity [2]: < 1%

Structure (SMILES): CCOC(=O)c1cc(C(=O)c2ccccc2O)n2ccc(C(=O)N[C@H]3CN4CCC3CC4)cc12
- EC50 [1]: > 20 µM
- Activity [2]: < 1%

Structure (SMILES): O=C(N[C@H]1CN2CCC1CC2)c1cc2cccc(-c3ccccc3)n2c1
- EC50 [1]: 3.98 µM
- Activity [2]: 59.8%

Structure (SMILES): O=C(N[C@H]1CN2CCC1CC2)c1cc(C(=O)c2cccc(Cl)c2)n2ccccc12
- EC50 [1]: > 20 µM
- Activity [2]: < 1%

Structure (SMILES): O=C(N[C@H]1CN2CCC1CC2)c1cc(C(=O)c2ccccc2)n2ccccc12
- EC50 [1]: > 20 µM
- Activity [2]: < 1%

Structure (SMILES): Cc1nc2ccc(F)cn2c1C(=O)N[C@H]1CN2CCC1CC2
- EC50 [1]: > 20 µM
- Activity [2]: < 1%

Structure (SMILES): Cc1cccc(-c2ccc3cc(C(=O)N[C@H]4CN5CCC4CC5)cn3c2)c1
- EC50 [1]: > 20 µM
- Activity [2]: < 1%

Structure (SMILES): O=C(N[C@H]1CN2CCC1CC2)c1cc2cc(Cl)ccn2c1
- EC50 [1]: 6.92 µM
- Activity [2]: 19.6%

Structure (SMILES): CCOC(=O)c1cc(C(=O)c2ccccc2)n2cccc(C(=O)N[C@H]3CN4CCC3CC4)c12
- EC50 [1]: > 20 µM
- Activity [2]: < 1%

Structure (SMILES): O=C(N[C@H]1CN2CCC1CC2)c1cc(C(=O)c2ccc(-c3ccccc3)cc2)n2ccccc12
- EC50 [1]: > 20 µM
- Activity [2]: < 1%

Structure (SMILES): O=C(N[C@H]1CN2CCC1CC2)c1cc2cc(Br)ccn2c1
- EC50 [1]: 10.5 µM
- Activity [2]: 34.7%

Structure (SMILES): CCOC(=O)c1cc(C(=O)c2ccccc2)n2ccc(C(=O)N[C@H]3CN4CCC3CC4)cc12
- EC50 [1]: > 20 µM
- Activity [2]: < 1%

Structure (SMILES): O=C(N[C@H]1CN2CCC1CC2)c1cc2ccc(Br)cn2c1
- EC50 [1]: 9.63 µM
- Activity [2]: 86.3%

Structure (SMILES): CCOC(=O)c1cc(C(=O)c2cccc([N+](=O)[O-])c2)n2ccc(C(=O)N[C@H]3CN4CCC3CC4)cc12
- EC50 [1]: > 20 µM
- Activity [2]: < 1%

Structure (SMILES): O=C(N[C@H]1CN2CCC1CC2)c1cc2c(Cl)cccn2c1
- EC50 [1]: > 20 µM
- Activity [2]: < 1%

Structure (SMILES): CN(C)c1cccc(-c2cccc3cc(C(=O)N[C@H]4CN5CCC4CC5)cn23)c1
- EC50 [1]: > 20 µM
- Activity [2]: < 1%

Structure (SMILES): CCOC(=O)c1cc(C(=O)c2ccc(Cl)c(Cl)c2)n2ccc(C(=O)N[C@H]3CN4CCC3CC4)cc12
- EC50 [1]: > 20 µM
- Activity [2]: < 1%

Structure (SMILES): CC(C)(C)c1ccc(-c2ccc3cc(C(=O)N[C@H]4CN5CCC4CC5)cn3c2)cc1
- EC50 [1]: > 20 µM
- Activity [2]: < 1%

Structure (SMILES): O=C(N[C@H]1CN2CCC1CC2)c1cc2ccccn2c1
- EC50 [1]: 8.38 µM
- Activity [2]: 57.1%

Structure (SMILES): O=C(N[C@H]1CN2CCC1CC2)c1cc2ccc(-c3cccs3)cn2c1
- EC50 [1]: > 20 µM
- Activity [2]: < 1%

Structure (SMILES): O=C(N[C@H]1CN2CCC1CC2)c1cc2cccc(Br)n2c1
- Ki [3]: 0.0149 µM
- Ki [4]: 0.0936 µM
- Activity [2]: 64.3%

Structure (SMILES): O=C(N[C@H]1CN2CCC1CC2)c1cc2c(-c3ccccc3)cccn2c1
- EC50 [1]: > 20 µM
- Activity [2]: < 1%

Structure (SMILES): O=C(N[C@H]1CN2CCC1CC2)c1cc2cccc(Cl)c2s1 [ENCENICLINE]
- EC50 [1]: 0.34 µM
- Activity [2]: 33.5%

Structure (SMILES): O=C(N[C@H]1CN2CCC1CC2)c1cc2c(Br)cccn2c1
- EC50 [1]: 4.75 µM
- Activity [2]: 75.9%

Structure (SMILES): O=C(N[C@H]1CN2CCC1CC2)c1cc2ccc(-c3ccccc3)cn2c1
- EC50 [1]: > 20 µM
- Activity [2]: < 1%

Structure (SMILES): CCOC(=O)c1cc(C(=O)c2cccc(C(F)(F)F)c2)n2ccc(C(=O)N[C@H]3CN4CCC3CC4)cc12
- EC50 [1]: > 20 µM
- Activity [2]: < 1%

Structure (SMILES): O=C(N[C@H]1CN2CCC1CC2)c1cc(C(=O)c2ccc(Cl)cc2)n2ccccc12
- EC50 [1]: > 20 µM
- Activity [2]: < 1%

Structure (SMILES): CC(C)(C)c1ccc(-c2cccc3cc(C(=O)N[C@H]4CN5CCC4CC5)cn23)cc1
- EC50 [1]: 8.6 µM
- Activity [2]: 23.9%

Structure (SMILES): CCOC(=O)c1cc(C(=O)c2ccc(F)cc2)n2ccc(C(=O)N[C@H]3CN4CCC3CC4)cc12
- EC50 [1]: > 20 µM
- Activity [2]: < 1%

Structure (SMILES): O=C(N[C@H]1CN2CCC1CC2)c1cc2ccc(-c3ccsc3)cn2c1
- EC50 [1]: > 20 µM
- Activity [2]: < 1%

Structure (SMILES): O=C(N[C@H]1CN2CCC1CC2)c1cc(C(=O)c2cccc(Br)c2)n2ccccc12
- EC50 [1]: > 20 µM
- Activity [2]: < 1%

Structure (SMILES): O=C(N[C@H]1CN2CCC1CC2)c1cc2cc(-c3ccccc3)ccn2c1
- EC50 [1]: > 20 µM
- Activity [2]: < 1%

Structure (SMILES): O=C(N[C@H]1CN2CCC1CC2)c1cc2ccc(Cl)cn2c1
- EC50 [1]: > 20 µM
- Activity [2]: < 1%

Structure (SMILES): CCOC(=O)c1cc(C(=O)c2cccc(F)c2)n2ccc(C(=O)N[C@H]3CN4CCC3CC4)cc12
- EC50 [1]: > 20 µM
- Activity [2]: < 1%

Structure (SMILES): Cc1cccc(-c2cccc3cc(C(=O)N[C@H]4CN5CCC4CC5)cn23)c1
- EC50 [1]: 3.99 µM
- Activity [2]: 63.9%

Structure (SMILES): O=C(N[C@H]1CN2CCC1CC2)c1cc2cccc(-c3ccc(-c4ccccc4)cc3)n2c1
- EC50 [1]: 14.1 µM
- Activity [2]: 18%

Structure (SMILES): Cc1ccccc1-c1cccc2cc(C(=O)N[C@H]3CN4CCC3CC4)cn12
- EC50 [1]: 4.64 µM
- Activity [2]: 17.6%

Structure (SMILES): Cc1cccc2cc(C(=O)N[C@H]3CN4CCC3CC4)cn12
- EC50 [1]: 2.14 µM
- Activity [2]: 66%

Structure (SMILES): O=C(N[C@H]1CN2CCC1CC2)c1cc2cccc(-c3ccsc3)n2c1
- EC50 [1]: 3.54 µM
- Activity [2]: 40.8%

Structure (SMILES): O=C(N[C@H]1CN2CCC1CC2)c1cc2c(F)cccn2c1
- EC50 [1]: 2.83 µM
- Activity [2]: 63.7%
